# Reference: ChEMBL document CHEMBL5723035, “Affinity Biochemical Literature for EUbOPEN Chemogenomic Library” (2024)
# Residues, ends and D or L forms follow the SMILES beside them. *: point of attachment. Cbz = O=C(OCc1ccccc1)*; CH2F = FC*
# Legend:
# [1] = molecular target: T1, Histone acetyltransferase KAT6A (Homo sapiens, UniProt Q92794); experiment: Affinity Biochemical interaction: (AlphaScreen) EUB0001094a MYST3; format: functional; set-up: mode of action Inhibitor, recommended concentration 1 uM
# [2] = molecular target: T1, Histone acetyltransferase KAT6A; experiment: Affinity Biochemical interaction: (SPR) EUB0001094a MYST3; set-up: mode of action Inhibitor, recommended concentration 1 uM
# [3] = molecular target: T2, Histone acetyltransferase KAT7 (Homo sapiens, UniProt O95251); experiment: Affinity Biochemical interaction: (AlphaScreen) EUB0001094a MYST2; format: functional; set-up: mode of action Inhibitor, recommended concentration 1 uM
# [4] = molecular target: T2, Histone acetyltransferase KAT7; experiment: Affinity Biochemical interaction: (SPR) EUB0001094a MYST2; set-up: mode of action Inhibitor, recommended concentration 1 uM
# [5] = Affinity Biochemical interaction: (enzymatic assay (fluorogenic substrate cleavage)) EUB0002134a CAPN2
# [6] = molecular target: Histone-arginine methyltransferase CARM1 (Homo sapiens, UniProt Q86X55); experiment: Affinity Biochemical interaction: (enzymatic assay (inhibition of methyl transfer from radiolabelled substrate [3H]SAM to peptide)) EUB0002245aCl CARM1; format: functional; set-up: mode of action Inhibitor, recommended concentration 1 uM
# [7] = molecular target: Protein arginine N-methyltransferase 6 (Homo sapiens, UniProt Q96LA8); experiment: Affinity Biochemical interaction: (enzymatic assay (inhibition of methyl transfer from radiolabelled substrate [3H]SAM to peptide)) EUB0002245aCl PRMT6; format: functional; set-up: mode of action Inhibitor, recommended concentration 1 uM
# [8] = molecular target: Protein arginine N-methyltransferase 8 (Homo sapiens, UniProt Q9NR22); experiment: Affinity Biochemical interaction: (enzymatic assay (inhibition of methyl transfer from radiolabelled substrate [3H]SAM to peptide)) EUB0002245aCl PRMT8; format: functional; set-up: mode of action Inhibitor, recommended concentration 1 uM
# Caspase-1 = Caspase-1 (Homo sapiens, UniProt P29466); experiment: Affinity Biochemical interaction: (enzymatic assay (fluorogenic substrate cleavage)) EUB0002198aAD CASP1; format: functional; set-up: mode of action Inhibitor, recommended concentration 1 uM
# Caspase-8 [9] = molecular target: T3, Caspase-8 (Homo sapiens, UniProt Q14790); experiment: Affinity Biochemical interaction: (enzymatic assay (fluorogenic substrate cleavage)) EUB0002198aAD CASP8; format: functional; set-up: mode of action Inhibitor, recommended concentration 1 uM
# [10] = molecular target: Diacylglycerol lipase-beta (Homo sapiens) (UniProt Q8NCG7); experiment: Affinity Biochemical interaction: (Gel-based competitive ABPP) EUB0002547a DAGLB; format: functional; set-up: recommended concentration 1 uM; conditions: Affinity Biochemical Source Knowledge https://pubs.acs.org/doi/epdf/10.1021/jm400898x
# [11] = molecular target: T4, WD repeat-containing protein 5 (Homo sapiens, UniProt P61964); experiment: Affinity Biochemical interaction: (Fluorescence polarisation anisotropy) EUB0002166aAD WDR5; format: functional; set-up: mode of action Inhibitor, recommended concentration 1 uM
# [12] = molecular target: T4, WD repeat-containing protein 5; experiment: Affinity Biochemical interaction: (TR-FRET) EUB0002166aAD WDR5; format: functional; set-up: mode of action Inhibitor, recommended concentration 1 uM
# Caspase-5 = Caspase-5 (Homo sapiens, UniProt P51878); experiment: Affinity Biochemical interaction: (enzymatic assay (fluorogenic substrate cleavage)) EUB0002202a CASP5; format: functional; set-up: mode of action Inhibitor, recommended concentration 1 uM
# Caspase-4 = Caspase-4 (Homo sapiens, UniProt P49662); experiment: Affinity Biochemical interaction: (enzymatic assay (fluorogenic substrate cleavage)) EUB0002201a CASP4; format: functional; set-up: mode of action Inhibitor, recommended concentration 1 uM
# Caspase-7 = Caspase-7 (Homo sapiens, UniProt P55210); experiment: Affinity Biochemical interaction: (enzymatic assay (fluorogenic substrate cleavage)) EUB0002173aAD CASP7; format: functional; set-up: mode of action Inhibitor, recommended concentration 1 uM
# Caspase-8 [13] = molecular target: T3, Caspase-8; experiment: Affinity Biochemical interaction: (enzymatic assay (fluorogenic substrate cleavage)) EUB0002173aAD CASP8; format: functional; set-up: mode of action Inhibitor, recommended concentration 1 uM
# Caspase-10 = Caspase-10 (Homo sapiens, UniProt Q92851); experiment: Affinity Biochemical interaction: (enzymatic assay (fluorogenic substrate cleavage)) EUB0002173aAD CASP10; format: functional; set-up: mode of action Inhibitor, recommended concentration 1 uM
# [14] = Affinity Biochemical interaction: (inhibition of enzyme activity, competitive binding assay (fluorescent substrate cleavage)) EUB0002137aAD CAPN2
# [15] = molecular target: T5, Histone-lysine N-methyltransferase EZH1 (Homo sapiens, UniProt Q92800); experiment: Affinity Biochemical interaction: (ELISA-based protein substrate methylation assay) EUB0002228a EZH1; format: functional; set-up: mode of action Inhibitor, recommended concentration 1 uM
# [16] = molecular target: T5, Histone-lysine N-methyltransferase EZH1; experiment: Affinity Biochemical interaction: (inhibition of EZH1 for both SAM and peptide substrates using a Flashplate assay to measure the transfer of a tritiated methyl group from SAM to the peptide) EUB0002228a EZH1; format: functional; set-up: mode of action Inhibitor, recommended concentration 1 uM
# Caspase-3 [17] = molecular target: T6, Caspase-3 (Homo sapiens, UniProt P42574); experiment: (§1) Affinity Biochemical interaction: (enzymatic assay (fluorogenic substrate cleavage)) EUB0002178aAD CASP3; format: functional; set-up: mode of action Inhibitor, recommended concentration 1 uM
# T6 sequence (P42574 whole entry): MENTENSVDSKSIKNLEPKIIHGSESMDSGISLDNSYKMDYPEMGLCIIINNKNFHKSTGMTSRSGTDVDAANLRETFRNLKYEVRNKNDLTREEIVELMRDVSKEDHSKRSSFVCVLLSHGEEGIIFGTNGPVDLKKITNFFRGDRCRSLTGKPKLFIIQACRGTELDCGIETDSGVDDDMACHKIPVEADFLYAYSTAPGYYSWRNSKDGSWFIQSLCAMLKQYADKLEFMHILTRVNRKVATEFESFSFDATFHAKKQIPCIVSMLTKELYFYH
# Caspase-3 [18] = molecular target: T6, Caspase-3; experiment: as §1; format: functional; set-up: mode of action Inhibitor, recommended concentration 1 uM; remark: listed apart in the source
# Sequence of Protein arginine N-methyltransferase 8 (Q9NR22 whole entry): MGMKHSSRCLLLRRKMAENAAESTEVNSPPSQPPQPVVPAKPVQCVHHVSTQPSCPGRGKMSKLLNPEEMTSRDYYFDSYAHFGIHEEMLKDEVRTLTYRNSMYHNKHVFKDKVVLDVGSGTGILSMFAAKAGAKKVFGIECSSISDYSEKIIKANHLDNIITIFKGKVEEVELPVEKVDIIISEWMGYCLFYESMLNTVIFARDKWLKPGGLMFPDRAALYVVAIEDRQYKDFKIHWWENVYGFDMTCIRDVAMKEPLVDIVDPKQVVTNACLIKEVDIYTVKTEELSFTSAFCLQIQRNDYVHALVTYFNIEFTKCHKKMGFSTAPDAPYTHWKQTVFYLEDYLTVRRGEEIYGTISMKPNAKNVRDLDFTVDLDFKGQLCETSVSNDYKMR
# Sequence of Protein arginine N-methyltransferase 6 (Q96LA8 whole entry): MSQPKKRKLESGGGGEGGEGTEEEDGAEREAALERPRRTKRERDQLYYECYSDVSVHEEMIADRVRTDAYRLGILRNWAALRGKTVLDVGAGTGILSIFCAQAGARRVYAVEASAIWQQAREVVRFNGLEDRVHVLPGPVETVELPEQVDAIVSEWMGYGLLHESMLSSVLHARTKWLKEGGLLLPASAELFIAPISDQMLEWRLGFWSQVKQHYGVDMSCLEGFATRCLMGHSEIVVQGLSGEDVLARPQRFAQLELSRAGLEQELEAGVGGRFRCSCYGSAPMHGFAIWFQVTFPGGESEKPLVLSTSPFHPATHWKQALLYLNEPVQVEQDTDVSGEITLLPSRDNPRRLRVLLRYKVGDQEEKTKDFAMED
# Sequence of Histone-arginine methyltransferase CARM1 (Q86X55 whole entry): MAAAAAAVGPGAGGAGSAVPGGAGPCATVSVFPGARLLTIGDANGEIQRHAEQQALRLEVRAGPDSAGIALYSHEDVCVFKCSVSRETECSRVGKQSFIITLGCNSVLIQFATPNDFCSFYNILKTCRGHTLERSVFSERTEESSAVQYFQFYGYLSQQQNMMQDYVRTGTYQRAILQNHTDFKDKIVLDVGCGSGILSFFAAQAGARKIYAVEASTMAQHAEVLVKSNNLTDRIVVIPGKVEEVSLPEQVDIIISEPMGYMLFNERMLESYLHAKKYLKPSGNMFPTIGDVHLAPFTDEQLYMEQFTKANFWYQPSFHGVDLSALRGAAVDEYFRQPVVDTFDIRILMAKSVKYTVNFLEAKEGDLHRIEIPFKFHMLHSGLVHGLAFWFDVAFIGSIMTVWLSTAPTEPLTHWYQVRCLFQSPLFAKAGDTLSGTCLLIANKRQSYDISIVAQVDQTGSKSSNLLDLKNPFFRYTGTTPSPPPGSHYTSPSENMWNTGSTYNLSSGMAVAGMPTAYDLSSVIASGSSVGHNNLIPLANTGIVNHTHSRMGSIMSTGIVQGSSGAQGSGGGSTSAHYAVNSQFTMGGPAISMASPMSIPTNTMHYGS
# T1 sequence (Q92794 whole entry): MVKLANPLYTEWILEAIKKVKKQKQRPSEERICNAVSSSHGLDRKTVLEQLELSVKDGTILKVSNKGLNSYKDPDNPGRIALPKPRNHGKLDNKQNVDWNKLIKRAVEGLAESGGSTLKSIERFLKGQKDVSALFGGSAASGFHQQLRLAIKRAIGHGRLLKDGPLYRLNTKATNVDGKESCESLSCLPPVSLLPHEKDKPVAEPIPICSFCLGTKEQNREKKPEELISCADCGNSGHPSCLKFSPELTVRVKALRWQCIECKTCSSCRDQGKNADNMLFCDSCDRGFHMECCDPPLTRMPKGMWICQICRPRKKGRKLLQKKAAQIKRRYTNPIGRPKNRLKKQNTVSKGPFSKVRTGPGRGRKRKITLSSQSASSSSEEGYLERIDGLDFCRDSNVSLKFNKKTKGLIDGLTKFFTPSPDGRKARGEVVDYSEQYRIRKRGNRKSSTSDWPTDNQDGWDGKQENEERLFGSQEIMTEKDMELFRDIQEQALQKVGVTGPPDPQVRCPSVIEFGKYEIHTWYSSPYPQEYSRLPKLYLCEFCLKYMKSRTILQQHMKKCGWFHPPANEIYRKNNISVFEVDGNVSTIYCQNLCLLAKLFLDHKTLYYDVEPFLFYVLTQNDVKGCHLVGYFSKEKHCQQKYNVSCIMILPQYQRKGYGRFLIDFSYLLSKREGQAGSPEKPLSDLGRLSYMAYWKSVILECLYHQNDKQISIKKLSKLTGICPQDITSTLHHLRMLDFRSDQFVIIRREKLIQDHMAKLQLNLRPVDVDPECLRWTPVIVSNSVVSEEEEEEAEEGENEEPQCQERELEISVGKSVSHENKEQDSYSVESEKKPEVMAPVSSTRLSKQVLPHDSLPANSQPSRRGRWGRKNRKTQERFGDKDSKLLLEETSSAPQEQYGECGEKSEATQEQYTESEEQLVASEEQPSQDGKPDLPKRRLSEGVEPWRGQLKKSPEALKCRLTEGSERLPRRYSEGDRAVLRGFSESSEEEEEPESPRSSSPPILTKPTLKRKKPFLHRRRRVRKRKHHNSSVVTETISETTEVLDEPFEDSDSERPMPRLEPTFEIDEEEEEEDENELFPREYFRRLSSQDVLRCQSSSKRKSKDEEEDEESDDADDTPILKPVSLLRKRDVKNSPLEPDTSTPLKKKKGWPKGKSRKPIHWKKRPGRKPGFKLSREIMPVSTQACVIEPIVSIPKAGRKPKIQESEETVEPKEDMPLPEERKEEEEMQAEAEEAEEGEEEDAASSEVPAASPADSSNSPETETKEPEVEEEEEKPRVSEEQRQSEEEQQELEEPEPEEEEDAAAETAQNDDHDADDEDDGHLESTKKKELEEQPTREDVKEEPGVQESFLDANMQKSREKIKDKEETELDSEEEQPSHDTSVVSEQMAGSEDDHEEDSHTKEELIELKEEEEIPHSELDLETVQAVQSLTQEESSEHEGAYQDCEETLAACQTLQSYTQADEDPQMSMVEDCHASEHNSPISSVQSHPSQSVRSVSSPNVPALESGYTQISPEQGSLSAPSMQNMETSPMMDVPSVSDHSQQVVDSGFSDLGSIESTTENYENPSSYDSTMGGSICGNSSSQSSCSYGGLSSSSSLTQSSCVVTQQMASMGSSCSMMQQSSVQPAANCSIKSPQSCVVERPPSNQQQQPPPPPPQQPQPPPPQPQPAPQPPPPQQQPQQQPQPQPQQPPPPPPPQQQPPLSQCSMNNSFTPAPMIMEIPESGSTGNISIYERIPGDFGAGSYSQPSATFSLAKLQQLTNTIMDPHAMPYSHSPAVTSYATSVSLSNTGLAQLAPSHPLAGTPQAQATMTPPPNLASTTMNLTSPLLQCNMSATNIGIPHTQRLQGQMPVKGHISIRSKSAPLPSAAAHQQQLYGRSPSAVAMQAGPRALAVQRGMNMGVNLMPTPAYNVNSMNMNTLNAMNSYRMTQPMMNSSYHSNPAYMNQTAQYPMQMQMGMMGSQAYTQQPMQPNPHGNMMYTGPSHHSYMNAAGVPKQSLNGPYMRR
# T2 sequence (O95251 whole entry): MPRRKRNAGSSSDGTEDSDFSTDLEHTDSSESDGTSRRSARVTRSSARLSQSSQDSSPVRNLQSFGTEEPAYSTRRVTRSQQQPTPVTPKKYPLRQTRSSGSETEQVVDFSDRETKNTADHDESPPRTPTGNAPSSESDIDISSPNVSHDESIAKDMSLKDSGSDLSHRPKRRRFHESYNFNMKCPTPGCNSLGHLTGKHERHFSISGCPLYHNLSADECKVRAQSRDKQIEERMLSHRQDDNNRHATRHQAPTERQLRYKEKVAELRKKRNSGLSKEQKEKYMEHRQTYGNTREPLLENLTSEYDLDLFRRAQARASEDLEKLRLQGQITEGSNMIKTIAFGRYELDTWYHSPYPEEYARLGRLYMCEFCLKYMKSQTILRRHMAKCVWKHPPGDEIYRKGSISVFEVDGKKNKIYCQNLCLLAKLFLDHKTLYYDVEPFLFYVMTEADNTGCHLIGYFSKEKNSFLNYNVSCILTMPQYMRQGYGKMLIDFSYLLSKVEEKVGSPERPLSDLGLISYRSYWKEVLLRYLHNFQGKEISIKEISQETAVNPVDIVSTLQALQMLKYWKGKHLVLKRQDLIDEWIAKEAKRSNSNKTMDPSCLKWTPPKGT
# T5 sequence (Q92800 whole entry): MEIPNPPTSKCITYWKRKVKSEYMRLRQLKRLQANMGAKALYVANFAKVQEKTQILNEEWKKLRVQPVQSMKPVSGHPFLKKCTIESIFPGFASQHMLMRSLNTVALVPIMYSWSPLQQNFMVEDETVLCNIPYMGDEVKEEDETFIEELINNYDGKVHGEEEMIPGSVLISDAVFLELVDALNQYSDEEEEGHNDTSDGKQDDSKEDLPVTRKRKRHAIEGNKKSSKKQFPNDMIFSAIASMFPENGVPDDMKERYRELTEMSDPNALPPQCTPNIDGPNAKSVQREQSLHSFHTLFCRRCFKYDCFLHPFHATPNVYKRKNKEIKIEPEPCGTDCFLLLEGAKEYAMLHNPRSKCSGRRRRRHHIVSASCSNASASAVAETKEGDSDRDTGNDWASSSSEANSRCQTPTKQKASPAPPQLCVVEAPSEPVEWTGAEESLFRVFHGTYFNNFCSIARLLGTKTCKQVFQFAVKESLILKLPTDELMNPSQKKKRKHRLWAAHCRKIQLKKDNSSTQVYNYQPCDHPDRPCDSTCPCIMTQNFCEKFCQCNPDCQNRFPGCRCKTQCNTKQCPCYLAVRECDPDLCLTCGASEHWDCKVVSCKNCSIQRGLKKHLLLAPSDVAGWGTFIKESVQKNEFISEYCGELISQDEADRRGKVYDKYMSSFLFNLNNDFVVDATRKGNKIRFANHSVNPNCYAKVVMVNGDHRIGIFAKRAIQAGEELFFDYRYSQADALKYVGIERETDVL
# T3 sequence (Q14790 217-374 limits assumed): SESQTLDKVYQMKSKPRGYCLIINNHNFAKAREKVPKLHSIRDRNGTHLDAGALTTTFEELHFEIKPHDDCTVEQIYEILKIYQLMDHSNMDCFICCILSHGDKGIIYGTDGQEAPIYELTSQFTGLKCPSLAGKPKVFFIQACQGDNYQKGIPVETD
# T3 sequence (Q14790 385-479 limits assumed): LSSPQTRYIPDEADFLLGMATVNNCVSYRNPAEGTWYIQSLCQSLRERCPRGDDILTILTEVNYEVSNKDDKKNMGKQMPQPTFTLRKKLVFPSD
structure (smiles),measurement,setting,value
Cc1cc(-c2ccccc2)cc(C(=O)NNS(=O)(=O)c2cccc(O)c2)c1F,IC50,[1],17 nM
same,Kd,[2],7 nM
same,IC50,[3],30 nM
same,Kd,[4],34 nM
CCCC(NC(=O)C(CC(C)C)NC(=O)OCc1ccccc1)C(=O)C(=O)NCc1ccccn1 (racemic),Ki,[5],120 nM
CCOCC1(COCC)CCC(c2n[nH]cc2CN(C)CCNC)CC1,IC50,[6],38 nM
same,Ki,[6],19 nM
same,IC50,[7],4.7 nM
same,Ki,[7],2.4 nM
same,IC50,[8],3.9 nM
same,Ki,[8],2 nM
CC(=O)N[C@@H](CC(C)C)C(=O)N[C@@H](CCC(=O)O)C(=O)N[C@@H](Cc1cnc[nH]1)C(=O)N[C@H](C=O)CC(=O)O (Ac-LEHD-aldehyde),IC50,Caspase-1,15 nM
same,IC50,Caspase-8 [9],3.82 nM
CC(C)(C)OC(=O)NCCCCCN(CCc1ccccc1)C(=O)n1cc(-c2ccc(OC(F)(F)F)cc2)nn1,inhibition,[10],73%
Cc1nc(F)ccc1-c1cc(Cn2ccn(C)c2=N)cc(C(=O)NCc2ccc(Cl)c(Cl)c2)c1,Ki,[11],< 0.001 nM
same,Ki,[12],0.106 nM
COC(=O)CC[C@H](NC(=O)[C@H](Cc1c[nH]c2ccccc12)NC(=O)OCc1ccccc1)C(=O)N[C@@H](Cc1cnc[nH]1)C(=O)N[C@@H](CC(=O)OC)C(=O)CF (Cbz-WE(OMe)HD(OMe)-CH2F),IC50,Caspase-5,340 nM
CC(=O)N[C@@H](CC(C)C)C(=O)N[C@@H](CCC(=O)O)C(=O)N[C@H](C(=O)N[C@H](C=O)CC(=O)O)C(C)C (Ac-LEVD-aldehyde),IC50,Caspase-4,84 nM
CC(=O)N[C@@H](CC(=O)O)C(=O)N[C@@H](CCC(=O)O)C(=O)N[C@H](C(=O)N[C@H](C=O)CC(=O)O)C(C)C,Ki,Caspase-7,1.6 nM
same,Ki,Caspase-8 [13],0.92 nM
same,Ki,Caspase-10,12 nM
CCC(NC(=O)C(CC(C)C)NC(=O)OCc1ccccc1)C(=O)C(=O)NCCCN1CCOCC1 (stereo unspecified),Ki,[14],41 nM
CCN(c1cc(C#CCN2CCOCC2)cc(C(=O)NCc2c(C)cc(C)[nH]c2=O)c1C)[C@H]1CC[C@H](N(C)CCOC)CC1,IC50,[15],103 nM
same,Ki,[16],45 nM
CC[C@H](C)[C@H](NC(=O)[C@H](CCC(=O)O)NC(=O)[C@@H](NC(C)=O)C(C)C)C(=O)N[C@H](C=O)CC(=O)O (Ac-VEID-aldehyde),IC50,Caspase-3 [17],13.6 nM
same,IC50,Caspase-3 [18],480 nM
